Results as given in patent publication US20110105474A1, “HETEROCYCLIC DERIVATIVES AS HDAC INHIBITORS” (DAC S.r.l., priority 2008, published 2011).
pIC50: −log10 of the molar value. Structures can show the parent of a compound that is named as a salt.

Legend:
Type in all cases: cell-based
A549 cells = experiment: Cell growth, CellTiter-Glo Luminescent Cell Viability Assay, A549; conditions: Homo sapiens, 72 h incubation
How it was run: (§1)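 K562, A549 and HCT-116 cells in exponential growth exposed to inhibitors at varying concentrations for 72 h. Viability read as ATP luminescence (CellTiter-Glo, 10 min at RT after lysis); IC50 from dose-response, reported as ranges.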

HCT-116 cells = experiment: Cell growth, CellTiter-Glo Luminescent Cell Viability Assay, HCT-116; conditions: Homo sapiens, 72 h incubation, read-out: IC50 HCT116
How it was run: as §1

K562 cells = experiment: Cell growth, CellTiter-Glo Luminescent Cell Viability Assay, K562; conditions: Homo sapiens, 72 h incubation
How it was run: as §1

Row | pIC50 (A549 cells) | pIC50 (HCT-116 cells) | pIC50 (K562 cells) | Structure (SMILES)
1 | ≤ 5.52 | 5.52 to 6.00 | 5.52 to 6.00 | O=C(/C=C/c1cccc(/C=C/C(=O)N2CCN(c3cccc(Cl)c3)CC2)c1)NO [Example 85, (E)-3-(3-{(E)-3-[4-(3-Chloro-phenyl)-piperazin-1-yl]-3-oxo-propenyl}-phenyl)-N-hydroxy-acrylamide hydrochloride]
2 | ≤ 5.52 | ≤ 5.52 | ≤ 5.52 | O=C(/C=C/c1cccc(/C=C/C(=O)N2CCC(Cc3ccccc3)CC2)c1)NO [Example 86, (E)-3-{3-[(E)-3-(4-Benzyl-piperidin-1-yl)-3-oxo-propenyl]-phenyl}-N-hydroxy-acrylamide]
3 | ≤ 5.52 | 5.52 to 6.00 | 5.52 to 6.00 | O=C(/C=C/c1cccc(/C=C/C(=O)N2CCN(c3ccccc3Cl)CC2)c1)NO [Example 87, (E)-3-(3-{(E)-3-[4-(2-Chloro-phenyl)-piperazin-1-yl]-3-oxo-propenyl}-phenyl)-N-hydroxy-acrylamide hydrochloride]
4 | 5.52 to 6.00 | ≥ 6.00 | ≥ 6.00 | N#Cc1ccc(N2CCN(C(=O)/C=C/c3cccc(/C=C/C(=O)NO)c3)CC2)cc1 [Example 88, (E)-3-(3-{(E)-3-[4-(4-Cyano-phenyl)-piperazin-1-yl]-3-oxo-propenyl}-phenyl)-N-hydroxy-acrylamide hydrochloride]
5 | ≤ 5.52 | ≤ 5.52 | ≤ 5.52 | O=C(/C=C/c1cccc(/C=C/C(=O)N2CCC=C(c3ccccc3)C2)c1)NO [Example 89, (E)-N-Hydroxy-3-{3-[(E)-3-oxo-3-(5-phenyl-3,6-dihydro-2H-pyridin-1-yl)-propenyl]-phenyl}-acrylamide]
6 | ≤ 5.52 | 5.52 to 6.00 | 5.52 to 6.00 | O=C(/C=C/c1cccc(/C=C/C(=O)N2CCNC(c3ccccc3)C2)c1)NO (stereo not drawn) [Example 90, (E)-N-Hydroxy-3-{3-[(E)-3-oxo-3-(3-phenyl-piperazin-1-yl)-propenyl]phenyl}-acrylamide hydrochloride]
7 | 5.52 to 6.00 | 5.52 to 6.00 | 5.52 to 6.00 | O=C(/C=C/c1cccc(/C=C/C(=O)N2CCN(c3ccc(C(F)(F)F)cc3)CC2)c1)NO [Example 91, (E)-N-Hydroxy-3-(3-{(E)-3-oxo-3-[4-(4-trifluoromethyl-phenyl)-piperazin-1-yl]-propenyl}-phenyl)-acrylamide hydrochloride]
8 | ≥ 6.00 | ≥ 6.00 | ≥ 6.00 | O=C(/C=C/c1cccc(/C=C/C(=O)N2CCCC(c3ccccc3F)C2)n1)NO (stereo not drawn) [Example 92, (E)-3-(6-{(E)-3-[3-(2-Fluoro-phenyl)-piperidin-1-yl]-3-oxo-propenyl}-pyridin-2-yl)-N-hydroxy-acrylamide hydrochloride]
9 | ≥ 6.00 | ≥ 6.00 | ≥ 6.00 | O=C(/C=C/c1cccc(/C=C/C(=O)N2CCCC(c3cccc(F)c3)C2)n1)NO (stereo not drawn) [Example 93, (E)-3-(6-{(E)-3-[3-(3-Fluoro-phenyl)-piperidin-1-yl]-3-oxo-propenyl}-pyridin-2-yl)-N-hydroxy-acrylamide hydrochloride]
10 | 5.52 to 6.00 | ≥ 6.00 | ≥ 6.00 | O=C(/C=C/c1cccc(/C=C/C(=O)N2CCCC(c3nc(-c4ccc(F)cc4)no3)C2)n1)NO (stereo not drawn) [Example 94, (E)-3-[6-((E)-3-{3-[3-(4-Fluoro-phenyl)-[1,2,4]oxadiazol-5-yl]-piperidin-1-yl}-3-oxo-propenyl)-pyridin-2-yl]-N-hydroxy-acrylamide hydrochloride]
11 | ≥ 6.00 | ≥ 6.00 | ≥ 6.00 | O=C(/C=C/c1cccc(/C=C/C(=O)N2CCC=C(c3ccccc3)C2)n1)NO [Example 95, (E)-N-Hydroxy-3-{6-[(E)-3-oxo-3-(5-phenyl-3,6-dihydro-2H-pyridin-1-yl)-propenyl]-pyridin-2-yl}-acrylamide hydrochloride]
12 | ≤ 5.52 | 5.52 to 6.00 | 5.52 to 6.00 | O=C(/C=C/c1cccc(/C=C/C(=O)N2CCc3cc(-c4ccccc4)ccc3C2)n1)NO [Example 96, (E)-N-Hydroxy-3-{6-[(E)-3-oxo-3-(6-phenyl-3,4-dihydro-1H-isoquinolin-2-yl)-propenyl]-pyridin-2-yl}-acrylamide hydrochloride]
13 | 5.52 to 6.00 | ≥ 6.00 | ≥ 6.00 | O=C(/C=C/c1cccc(/C=C/C(=O)N2CCc3nc(-c4ccccc4)sc3C2)n1)NO [Example 97, (E)-N-Hydroxy-3-{6-[(E)-3-oxo-3-(2-phenyl-6,7-dihydro-4H-thiazolo[5,4-c]pyridin-5-yl)-propenyl]-pyridin-2-yl}-acrylamide hydrochloride]
14 | 5.52 to 6.00 | ≥ 6.00 | 5.52 to 6.00 | O=C(/C=C/c1cccc(/C=C/C(=O)N2CCCc3nc(-c4ccccc4)sc32)n1)NO [Example 98, (E)-N-Hydroxy-3-{6-[(E)-3-oxo-3-(2-phenyl-6,7-dihydro-5H-thiazolo[5,4-b]pyridin-4-A-propenyl]-pyridin-2-yl}-acrylamide trifluoroacetate]
